The subject of experiment [1] is Staphylococcus aureus. Nature of the experiment: Antibacterial activity against Staphylococcus aureus assessed per disk. It counts as functional.
Experiment [2] concerns Micrococcus sp. Briefly: Antibacterial activity against Micrococcus sp. assessed per disk. It counts as functional.

In the case of `COC1=CC(=O)C(O)=C(C[C@]2(C)[C@@H](C)CC[C@@]3(C)C(C)=CCC[C@@H]23)C1=O`, the MIC in experiment [1] and in experiment [2] was 20 µg each time.

`CCOC1=CC(=O)C(O)=C(C[C@]2(C)[C@@H](C)CC[C@@]3(C)C(C)=CCC[C@@H]23)C1=O`: the MIC in experiment [1] and in experiment [2] was 50 µg each time.

Source of the values: ChEMBL document CHEMBL1150056, “5-Epi-isospongiaquinone, a new sesquiterpene/quinone antibiotic from an Australian marine sponge, Spongia hispida” (1992).
